# Measurements as given in patent US20220175693A1, “DIETARY SUPPLEMENT COMPRISING LUTEIN FOR TELOMERE PROTECTION, AND METHOD FOR PRODUCTION THEREOF” (BIOGEN EXTRACTS PRIVATE LIMITED, priority 2019, published 2022).
# What was measured:
# [1] = test system: human adult primary fibroblast cells; test: Telomere length by Telomere Analysis Technology (HT Q-FISH) and telomere shortening rate; type: cell-based
# Text: A high-throughput (HT) Q-FISH technique was used. This method is based on a quantitative fluorescence in-situ hybridization method modified for cells in interphase2. In brief, telomeres are hybridized with a fluorescent Peptide Nucleic Acid probe (PNA) that recognizes three telomere repeats. The images of the nuclei and telomeres are captured by a high-content screen system. The intensity of the fluorescent signal from the telomeric PNA probes that hybridize to a given telomere is proportional to the length of that telomere. The intensities of fluorescence are translated to base pairs through a standard regression curve which is generated using control cell lines with known telomere length.
# (§1) Sample Preparation and HT Q-FISH: On processing day, the samples and control cell lines frozen in liquid nitrogen are thawed at 37° C. and cell counts and cellular viability are determined. Aliquots with viability lower than 60% are considered below our QC standards and are not further analyzed. Cells are seeded in clear bottom black-walled 384-well plates at 15,000 cells per well in 5 replicates for each sample and 8 replicates for each control cell line.
# Cells are fixed with methanol/acetic acid (3/1, vol/vol). Once these cells have fixed onto the plate, they are treated with pepsin to digest the cytoplasm and the nuclei are processed for in situ hybridization with the PNA probe. After several washing steps following standard DAPI incubation for DNA staining, the wells are filled up with mounting medium and the plate is stored overnight at 4° C.
# HT Microscopy: Quantitative image acquisition and analysis is performed on a High Content Screening Opera System. Images are captured, using a 40×0.95 NA water immersion objective. UV and 488 nm excitation wavelengths are used to detect the DAPI and A488 signals respectively. With constant exposure settings, 15 independent images are captured at different positions for each well. Next, the nuclei images are used to define the region of interest for each cell, measuring telomere fluorescence intensity of the A488 image in all of them. The results of intensity for each foci are exported to the Columbus 2.4 software. Telomere length distribution and median telomere length are calculated with Life Length's proprietary program.
# Median telomere length, 20th percentile telomere length, percentage of short telomeres and the coefficients of variation for each set of samples. The percentage of short telomeres is defined as the percentage of those below 3 Kbp (<3 Kbp). As mentioned earlier, measurements in five replicates per sample were performed.
# For TAT analysis, data were grouped by condition (Ctrl, H2O2, LUT10, LUT5, LUT1, LUT10+H2O2, LUT5+H2O2, LUT1+H2O2) and time point of treatment (0, 4, and 8 weeks).
# Due to the fact that DNA replication during the cell cycle causes of telomere shortening, the telomere length measurements performed were normalized by the total number of population doubling (cell replication) in each condition and week.
# Telomere shortening rate was analysed, Median of telomere length (initial-final)/Population Doubling, at the defined time points and treatments, FIG. 8.
# Graph of telomere length vs Population doubling at different treatments. Slope of regression line in each condition, represents the telomere shortening rate. Y=aX+b; a=slope andbb=y intercept, FIG. 9.
# [2] = test system: human adult primary fibroblast cells; test: Cell count and viability of samples after thawing (Tripan-Blue exclusion); type: cell-based
# Description: as §1, with “line. Cell count: An automated cell counter is used to determine the total number of cells in the vials. A minimum of 100.000 cells are needed to perform TAT. Cell viability by Tripan-Blue exclusion method. The exclusion criteria currently in place will reject aliquots with less than 60% viable cells.” for “line.”
# [3] = Lutein 1 μg/ml + 10 μM H2O2, week 4 (P4)
# [4] = Lutein 1 μg/ml + 10 μM H2O2, week 8 (P8)
# [5] = Lutein 1 μg/ml, standard culture, week 4 (P4)
# [6] = Lutein 1 μg/ml, standard culture, week 8 (P8)
# [7] = Lutein 5 μg/ml + 10 μM H2O2, week 4 (P4)
# [8] = Lutein 5 μg/ml + 10 μM H2O2, week 8 (P8)
# [9] = Lutein 5 μg/ml, standard culture, week 4 (P4)
# [10] = Lutein 5 μg/ml, standard culture, week 8 (P8)
# [11] = Lutein 10 μg/ml + 10 μM H2O2, week 4 (P4)
# [12] = Lutein 10 μg/ml + 10 μM H2O2, week 8 (P8)
# [13] = Lutein 10 μg/ml, standard culture, week 4 (P4)
# [14] = Lutein 10 μg/ml, standard culture, week 8 (P8)
compound,measurement,setting,value
CC1=C[C@H](O)CC(C)(C)[C@H]1/C=C/C(C)=C/C=C/C(C)=C/C=C/C=C(C)/C=C/C=C(C)/C=C/C1=C(C)C[C@@H](O)CC1(C)C [Lutein],Telomere shortening rate versus control,"[1]; Lutein 1 μg/ml (LUT1), standard conditions, 8 weeks",significant increase
same,Median Telomere Length (Table 7A),"[1]; Lutein 1 μg/ml + 10 μM H2O2, week 4",5980 bp
same,"20th Percentile Length (telomere, TAT)",[1]; [3],3381 base pairs
same,"Median Length (telomere, TAT)",[1]; [3],5997 base pairs
same,Telomere shortening rate (Median of telomere length (initial-final)/Population Doubling),[1]; [3],111 bp/PD
same,Telomeres <3 Kbp (percentage of short telomeres),[1]; [3],16.72%
same,Median Telomere Length (Table 7A),"[1]; Lutein 1 μg/ml + 10 μM H2O2, week 8",6045 bp
same,"20th Percentile Length (telomere, TAT)",[1]; [4],2848 base pairs
same,"Median Length (telomere, TAT)",[1]; [4],6037 base pairs
same,Telomere shortening rate (Median of telomere length (initial-final)/Population Doubling),[1]; [4],63 bp/PD
same,Telomeres <3 Kbp (percentage of short telomeres),[1]; [4],21.14%
same,"Slope (Telomere Shortening Rate) of regression line, telomere length vs Population doubling","[1]; Lutein 1 μg/ml + 10 μM H2O2, weeks 0-8",y = −66.365x + 7187.3
same,Median Telomere Length (Table 7A),"[1]; Lutein 1 μg/ml, standard culture, week 4",5984 bp
same,"20th Percentile Length (telomere, TAT)",[1]; [5],3351 base pairs
same,"Median Length (telomere, TAT)",[1]; [5],5977 base pairs
same,Telomere shortening rate (Median of telomere length (initial-final)/Population Doubling),[1]; [5],100 bp/PD
same,Telomeres <3 Kbp (percentage of short telomeres),[1]; [5],16.87%
same,Median Telomere Length (Table 7A),"[1]; Lutein 1 μg/ml, standard culture, week 8",6071 bp
same,"20th Percentile Length (telomere, TAT)",[1]; [6],2848 base pairs
same,"Median Length (telomere, TAT)",[1]; [6],6077 base pairs
same,Telomere shortening rate (Median of telomere length (initial-final)/Population Doubling),[1]; [6],53 bp/PD
same,Telomeres <3 Kbp (percentage of short telomeres),[1]; [6],21.29%
same,"Slope (Telomere Shortening Rate) of regression line, telomere length vs Population doubling","[1]; Lutein 1 μg/ml, standard culture, weeks 0-8",y = −55.261x + 7163.8
same,Median Telomere Length (Table 7A),"[1]; Lutein 5 μg/ml + 10 μM H2O2, week 4",6085 bp
same,"20th Percentile Length (telomere, TAT)",[1]; [7],3351 base pairs
same,"Median Length (telomere, TAT)",[1]; [7],6077 base pairs
same,Telomere shortening rate (Median of telomere length (initial-final)/Population Doubling),[1]; [7],93 bp/PD
same,Telomeres <3 Kbp (percentage of short telomeres),[1]; [7],16.97%
same,Median Telomere Length (Table 7A),"[1]; Lutein 5 μg/ml + 10 μM H2O2, week 8",5980 bp
same,"20th Percentile Length (telomere, TAT)",[1]; [8],2977 base pairs
same,"Median Length (telomere, TAT)",[1]; [8],5977 base pairs
same,Telomere shortening rate (Median of telomere length (initial-final)/Population Doubling),[1]; [8],59 bp/PD
same,Telomeres <3 Kbp (percentage of short telomeres),[1]; [8],20.09%
same,"Slope (Telomere Shortening Rate) of regression line, telomere length vs Population doubling","[1]; Lutein 5 μg/ml + 10 μM H2O2, weeks 0-8",y = −61.587x + 7222
same,Median Telomere Length (Table 7A),"[1]; Lutein 5 μg/ml, standard culture, week 4",6340 bp
same,"20th Percentile Length (telomere, TAT)",[1]; [9],3104 base pairs
same,"Median Length (telomere, TAT)",[1]; [9],6349 base pairs
same,Telomere shortening rate (Median of telomere length (initial-final)/Population Doubling),[1]; [9],80 bp/PD
same,Telomeres <3 Kbp (percentage of short telomeres),[1]; [9],18.98%
same,Median Telomere Length (Table 7A),"[1]; Lutein 5 μg/ml, standard culture, week 8",6177 bp
same,"20th Percentile Length (telomere, TAT)",[1]; [10],2945 base pairs
same,"Median Length (telomere, TAT)",[1]; [10],6037 base pairs
same,Telomere shortening rate (Median of telomere length (initial-final)/Population Doubling),[1]; [10],55 bp/PD
same,Telomeres <3 Kbp (percentage of short telomeres),[1]; [10],20.51%
same,"Slope (Telomere Shortening Rate) of regression line, telomere length vs Population doubling","[1]; Lutein 5 μg/ml, standard culture, weeks 0-8",y = −56.796x + 7261.1
same,Median Telomere Length (Table 7A),"[1]; Lutein 10 μg/ml + 10 μM H2O2, week 4",5804 bp
same,"20th Percentile Length (telomere, TAT)",[1]; [11],3073 base pairs
same,"Median Length (telomere, TAT)",[1]; [11],5772 base pairs
same,Telomere shortening rate (Median of telomere length (initial-final)/Population Doubling),[1]; [11],118 bp/PD
same,Telomeres <3 Kbp (percentage of short telomeres),[1]; [11],19.10%
same,Median Telomere Length (Table 7A),"[1]; Lutein 10 μg/ml + 10 μM H2O2, week 8",5972 bp
same,"20th Percentile Length (telomere, TAT)",[1]; [12],2977 base pairs
same,"Median Length (telomere, TAT)",[1]; [12],5977 base pairs
same,Telomere shortening rate (Median of telomere length (initial-final)/Population Doubling),[1]; [12],66 bp/PD
same,Telomeres <3 Kbp (percentage of short telomeres),[1]; [12],20.09%
same,"Slope (Telomere Shortening Rate) of regression line, telomere length vs Population doubling","[1]; Lutein 10 μg/ml + 10 μM H2O2, weeks 0-8",y = −71.479x + 7181.9
same,Median Telomere Length (Table 7A),"[1]; Lutein 10 μg/ml, standard culture, week 4",6272 bp
same,"20th Percentile Length (telomere, TAT)",[1]; [13],3198 base pairs
same,"Median Length (telomere, TAT)",[1]; [13],6330 base pairs
same,Telomere shortening rate (Median of telomere length (initial-final)/Population Doubling),[1]; [13],81 bp/PD
same,Telomeres <3 Kbp (percentage of short telomeres),[1]; [13],18.48%
same,Median Telomere Length (Table 7A),"[1]; Lutein 10 μg/ml, standard culture, week 8",6008 bp
same,"20th Percentile Length (telomere, TAT)",[1]; [14],2977 base pairs
same,"Median Length (telomere, TAT)",[1]; [14],5997 base pairs
same,Telomere shortening rate (Median of telomere length (initial-final)/Population Doubling),[1]; [14],56 bp/PD
same,Telomeres <3 Kbp (percentage of short telomeres),[1]; [14],20.21%
same,"Slope (Telomere Shortening Rate) of regression line, telomere length vs Population doubling","[1]; Lutein 10 μg/ml, standard culture, weeks 0-8",y = −57.039x + 7250
same,Telomere shortening rate compared to control (H2O2),"[1]; Lutein 10, 5 and 1 μg/ml + 10 μM H2O2, after 8 passages",significant difference
same,Effect on telomere length erosion in vitro,"[1]; oxidative stress conditions, after 8 passages",significant protective effect
same,"Telomere analysis versus control, other differences","[1]; treated groups in standard conditions (LUT10, LUT5, LUT1), 8 weeks",No other significant differences
same,Viability of sample after thawing,[2]; [3],87%
same,Viability of sample after thawing,[2]; [4],87%
same,Viability of sample after thawing,[2]; [5],80%
same,Viability of sample after thawing,[2]; [6],91%
same,Viability of sample after thawing,[2]; [7],81%
same,Viability of sample after thawing,[2]; [8],76%
same,Viability of sample after thawing,[2]; [9],96%
same,Viability of sample after thawing,[2]; [10],91%
same,Viability of sample after thawing,[2]; [11],96%
same,Viability of sample after thawing,[2]; [12],92%
same,Viability of sample after thawing,[2]; [13],96%
same,Viability of sample after thawing,[2]; [14],87%
